17 molecules from patent US10526347B2, “3-(3H-imidazo[4,5-B]pyridin-2-yl)-1H-pyrazolo[3,4-B]pyridine and therapeutic uses thereof” (Samumed, LLC, priority 2014, dated 2020) can be followed below.

The test system of test [1] is primary human fibroblasts derived from IPF patients (LL29 cells). The experiment in a line: Inhibition of the fibrotic process in TGF-β1 treated IPF patient fibroblasts (αSMA staining). The class given is cell-based. The note with it: Fibroblast, 96 h, LL29 cells treated with TGF-β1 (20 ng/mL), 4 days, read-out: Inhibition of fibrosis EC50. The text has this:
The above synthesized compounds were screened using primary human fibroblasts (derived from IPF patients) treated with TGF-β1 to determine their ability to inhibit the fibrotic process.
Primary human fibroblasts derived from IPF patients (LL29 cells) [^1Xiaoqiu Liu, et. al., “Fibrotic Lung Fibroblasts Show Blunted Inhibition by cAMP Due to Deficient cAMP Response Element-Binding Protein Phosphorylation”, Journal of Pharmacology and Experimental Therapeutics (2005), 315(2), 678-687; ^2Watts, K. L., et. al., “RhoA signaling modulates cyclin D1 expression in human lung fibroblasts; implications for idiopathic pulmonary fibrosis”, Respiratory Research (2006), 7(1), 88] were obtained from American Type Culture Collection (ATCC) and expanded in F12 medium supplemented with 15% Fetal Bovine Serum and Penicillin/Streptomycin.
Each compound was dissolved in DMSO as a 10 mM stock and used to prepare compound source plates. Serial dilution (1:2, 11-point dose-response curves from 10 μM to 1.87 nM) and compound transfer was performed using the ECHO 550 (Labcyte, Sunnyvale, Calif.) into 384-well clear bottom assay plates (Greiner Bio-One) with appropriate DMSO backfill for a final DMSO concentration of 0.1%. LL29 cells were plated at 1,500 cells/well in 80 μl/well F12 medium supplemented with 1% Fetal Bovine Serum. One hour after addition of the cells, TGF-β1 (Peprotech; 20 ng/mL) was added to the plates to induce fibrosis (ref. 1 and 2 above). Wells treated with TGF-β1 and containing DMSO were used as controls. Cells were incubated at 37° C. and 5% CO2 for 4 days. Following incubation for 4 days, SYTOX green nucleic acid stain (Life Technologies [Thermo Fisher Scientific]) was added to the wells at a final concentration of 1 uM and incubated at room temperature for 30 min. Cells were then fixed using 4% formaldehyde (Electron Microscopy Sciences), washed 3 times with PBS followed by blocking and permeabilization using 3% Bovine Serum Albumin (BSA; Sigma) and 0.3% Triton X-100 (Sigma) in PBS. Cells were then stained with antibody specific to α-smooth muscle actin (αSMA; Abcam) (ref. 1 and 2 above) in 3% Bovine Serum Albumin (BSA; Sigma) and 0.3% Triton X-100 (Sigma) in PBS, and incubated overnight at 4° C. Cells were then washed 3 times with PBS, followed by incubation with Alexa Flor-647 conjugated secondary antibody (Life Technologies [Thermo Fisher Scientific]) and DAPI at room temperature for 1 hour. Cells were then washed 3 times with PBS and plates were sealed for imaging. αSMA staining was imaged by excitation at 630 nm and emission at 665 nm and quantified using the Compartmental Analysis program on the CellInsight CX5 (Thermo Scientific). Dead or apoptotic cells were excluded from analysis based on positive SYTOX green staining. % of total cells positive for αSMA were counted in each well and normalized to the average of 11 wells treated with TGF-β1 on the same plate using Dotmatics' Studies Software. The normalized averages (fold change over untreated) of 3 replicate wells for each compound concentration were used to create dose-responses curves and EC50 values were calculated using non-linear regression curve fit in the Dotmatics' Studies Software. The EC50 values are reported.

Test [2] concerns Wnt activity (SW480 colon carcinoma cells stably expressing the Sp5-Luc reporter gene). The experiment in a line: Sp5-Luc reporter gene screening assay for Wnt activity. The note with it: Homo sapiens. Type of test: cell-based. The text has this:
The screening assay for Wnt activity is described as follows. Reporter cell lines can be generated by stably transducing cancer cell lines (e.g., colon cancer) or primary cells (e.g., IEC-6 intestinal cells) with a lentiviral construct that includes a Wnt-responsive promoter driving expression of the firefly luciferase gene.
SW480 colon carcinoma cells were transduced with a lentiviral vector expressing luciferase with a human Sp5 promoter consisting of a sequence of eight TCF/LEF binding sites. SW480 cells stably expressing the Sp5-Luc reporter gene and a hygromycin resistance gene were selected by treatment with 150 μg/ml of hygromycin for 7 days. These stably transduced SW480 cells were expanded in cell culture and used for all further screening activities. For Sp5-Luc reporter gene assays, the cells were plated at 10,000 cells/well in 96-well plates with growth medium containing 10% fetal calf serum and incubated overnight at 37° C. and 5% CO2. Each compound was dissolved in DMSO as a 10 mM stock in standard j-vials and used to prepare compound source plates in dose-response format with 3-fold serial dilutions and a 10 mM top concentration. Compound transfer from serially diluted source plates to assay plates containing the cells was accomplished using a pintool (Multimek 96, Beckman equipped with V&P Scientific FP1S50H pins) based liquid handling protocol. This protocol used a slotted pin to transfer 50 nl of compound from a source plate well to an assay plate well containing 50 μl of cells in growth medium. […] Control wells received 50 nl of DMSO treatment for normalization and calculating IC50 values. The treated cells were incubated at 37° C. and 5% CO2 for an additional forty-two hours. Following incubation, the growth medium was removed and 50 μl of BrightGlo luminescence reagent (Promega) was added to each well of the 96-well assay plates. The plates were placed on an orbital shaker for 5 min and then luminescence was quantified on the Victor3 (Perkin Elmer) plate reader. Readings were normalized to DMSO only treated cells, and normalized activities were utilized for IC50 calculations using the dose-response log (inhibitor) vs. response -variable slope (four parameters) nonlinear regression feature available in GraphPad Prism 5.0 or 6.0.

As for `CN1CCN(c2ccnc3[nH]c(-c4n[nH]c5ncc(-c6cncc(N)c6)cc45)nc23)CC1` [Compound 186, 5-(3-(7-(4-Methylpiperazin-1-yl)-3H-imidazo[4,5-b]pyridin-2-yl)-1H-pyrazolo[3,4-b]pyridin-5-yl)pyridin-3-amine], the EC50 in test [1] is at least 9.99 µM. The IC50 in test [2] was above 10 µM.
For `CC(C)C(=O)Nc1cncc(-c2cnc3[nH]nc(-c4nc5c(N6CCN(C)CC6)ccnc5[nH]4)c3c2)c1` [Compound 192, N-(5-(3-(7-(4-Methylpiperazin-1-yl)-3H-imidazo[4,5-b]pyridin-2-yl)-1H-pyrazolo[3,4-b]pyridin-5-yl)pyridin-3-yl)isobutyramide] the same measures were at most 0.009 µM and above 10 µM.
For `CN1CCN(c2ccnc3[nH]c(-c4n[nH]c5ncc(-c6cncc(CN7CCCCC7)c6)cc45)nc23)CC1` [Compound 198, 3-(7-(4-Methylpiperazin-1-yl)-3H-imidazo[4,5-b]pyridin-2-yl)-5-(5-(piperidin-1-ylmethyl)pyridin-3-yl)-1H-pyrazolo[3,4-b]pyridine] the same measures were 3.04 µM and above 10 µM.
For the molecule `c1cncc(-c2cnc3[nH]nc(-c4nc5cccnc5[nH]4)c3c2)c1` [Compound 212, 3-(3H-Imidazo[4,5-b]pyridin-2-yl)-5-(pyridin-3-yl)-1H-pyrazolo[3,4-b]pyridine], in test [1], the 50% effective concentration (EC50) was determined as 0.501 µM. The same molecule yielded an IC50 in test [2] of 0.214 µM.
Consider `O=C(Cc1ccccc1)Nc1cncc(-c2cnc3[nH]nc(-c4nc5cccnc5[nH]4)c3c2)c1` [Compound 216, N-(5-(3-(3H-Imidazo[4,5-b]pyridin-2-yl)-1H-pyrazolo[3,4-b]pyridin-5-yl)pyridin-3-yl)-2-phenylacetamide], for which the EC50 in test [1] is at least 9.99 µM. The molecule also yielded an IC50 in test [2] of 0.751 µM.
Taken in the same sequence, the figures for `O=C(Nc1cncc(-c2cnc3[nH]nc(-c4nc5cccnc5[nH]4)c3c2)c1)C1CCCCC1` [Compound 228, N-(5-(3-(3H-Imidazo[4,5-b]pyridin-2-yl)-1H-pyrazolo[3,4-b]pyridin-5-yl)pyridin-3-yl)cyclohexanecarboxamide] were at most 0.009 µM and above 10 µM.
Taken in the same sequence, the figures for `Cc1ccncc1-c1cnc2[nH]nc(-c3nc4c(-c5ccsc5)ccnc4[nH]3)c2c1` [Compound 237, 5-(4-Methylpyridin-3-yl)-3-(7-(thiophen-3-yl)-3H-imidazo[4,5-b]pyridin-2-yl)-1H-pyrazolo[3,4-b]pyridine] were 0.282 µM and 0.0216 µM.
Taken in the same sequence, the figures for `O=C(Nc1cncc(-c2cnc3[nH]nc(-c4nc5c(-c6ccsc6)ccnc5[nH]4)c3c2)c1)c1ccccc1` [Compound 243, N-(5-(3-(7-(Thiophen-3-yl)-3H-imidazo[4,5-b]pyridin-2-yl)-1H-pyrazolo[3,4-b]pyridin-5-yl)pyridin-3-yl)benzamide] were 0.113 µM and 0.033 µM.
For `CCNCc1cncc(-c2cnc3[nH]nc(-c4nc5c(-c6ccoc6)ccnc5[nH]4)c3c2)c1` [Compound 264, N-((5-(3-(7-(Furan-3-yl)-3H-imidazo[4,5-b]pyridin-2-yl)-1H-pyrazolo [3,4-b]pyridin-5-yl)pyridin-3-yl)methyl)ethanamine], the half-maximal effective concentration (EC50) in test [1] was at most 0.009 µM. In test [2], the concentration for half-maximal inhibition (IC50) was above 10 µM.
As for `CC(C)Nc1cncc(-c2cnc3[nH]nc(-c4nc5c(-c6ccoc6)ccnc5[nH]4)c3c2)c1` [Compound 270, 5-(3-(7-(Furan-3-yl)-3H-imidazo[4,5-b]pyridin-2-yl)-1H-pyrazolo[3,4-b]pyridin-5-yl)-N-isopropylpyridin-3-amine], the EC50 in test [1] was 0.786 µM. This molecule registered an IC50 in test [2] of 0.0443 µM.
For `c1cc(-c2ccoc2)c2nc(-c3n[nH]c4ncc(-c5cncc(CNCC6CCCC6)c5)cc34)[nH]c2n1` [Compound 282, 1-Cyclopentyl-N-((5-(3-(7-(furan-3-yl)-3H-imidazo[4,5-b]pyridin-2-yl)-1H-pyrazolo[3,4-b]pyridin-5-yl)pyridin-3-yl)methyl)methanamine] the same measures were at least 9.99 µM and above 10 µM.
`CN(C)Cc1cncc(-c2cnc3[nH]nc(-c4nc5c(-c6cccs6)ccnc5[nH]4)c3c2)c1` [Compound 297, N,N-Dimethyl-1-(5-(3-(7-(thiophen-2-yl)-3H-imidazo[4,5-b]pyridin-2-yl)-1H-pyrazolo[3,4-b]pyridin-5-yl)pyridin-3-yl)methanamine]: in test [1], the EC50 is at least 9.99 µM. In test [2], the IC50 is above 10 µM.
As for `O=C(Nc1cncc(-c2cnc3[nH]nc(-c4nc5c(-c6cccs6)ccnc5[nH]4)c3c2)c1)C1CC1` [Compound 303, N-(5-(3-(7-(Thiophen-2-yl)-3H-imidazo[4,5-b]pyridin-2-yl)-1H-pyrazolo[3,4-b]pyridin-5-yl)pyridin-3-yl)cyclopropanecarboxamide], in test [1], the EC50 was at least 9.99 µM. In addition, in test [2], the 50% inhibitory concentration (IC50) came to 0.0077 µM.
As to `CC(C)CC(=O)Nc1cncc(-c2cnc3[nH]nc(-c4nc5c(-c6ccc(F)s6)ccnc5[nH]4)c3c2)c1` [Compound 312, N-(5-(3-(7-(5-Fluorothiophen-2-yl)-3H-imidazo[4,5-b]pyridin-2-yl)-1H-pyrazolo[3,4-b]pyridin-5-yl)pyridin-3-yl)-3-methylbutanamide], in test [1], the EC50 amounted to 0.189 µM. Further, the IC50 in test [2] was 0.027 µM.
On to `Cc1ccc(-c2ccnc3[nH]c(-c4n[nH]c5ncc(-c6cncc(CN7CCCCC7)c6)cc45)nc23)s1` [Compound 351, 3-(7-(5-Methylthiophen-2-yl)-3H-imidazo[4,5-b]pyridin-2-yl)-5-(5-(piperidin-1-ylmethyl)pyridin-3-yl)-1H-pyrazolo[3,4-b]pyridine], for which the 50% effective concentration (EC50) in test [1] was at least 9.99 µM. Moreover, in test [2], the half-maximal inhibitory concentration (IC50) is above 10 µM.
With `Cc1ccc(-c2ccnc3[nH]c(-c4n[nH]c5ncc(-c6cncc(NC(=O)C7CCCC7)c6)cc45)nc23)s1` [Compound 357, N-(5-(3-(7-(5-Methylthiophen-2-yl)-3H-imidazo[4,5-b]pyridin-2-yl)-1H-pyrazolo[3,4-b]pyridin-5-yl)pyridin-3-yl)cyclopentanecarboxamide], the EC50 in test [1] was determined as 1.39 µM. In test [2], this molecule showed an IC50 of 0.008 µM.
Consider `CC(=O)c1ccc(-c2ccnc3[nH]c(-c4n[nH]c5ncc(-c6cncc(NC(=O)C7CCCCC7)c6)cc45)nc23)s1` [Compound 384, N-(5-(3-(7-(5-Acetylthiophen-2-yl)-3H-imidazo[4,5-b]pyridin-2-yl)-1H-pyrazolo[3,4-b]pyridin-5-yl)pyridin-3-yl)cyclohexanecarboxamide], for which the EC50 in test [1] is at least 9.99 µM. In test [2], this molecule registered a concentration for half-maximal inhibition (IC50) above 10 µM.
